Targets include RET(V804L) (Homo sapiens, UniProt P07949, V804L); HCK (Homo sapiens, UniProt P08631); EPHB3 (Homo sapiens, UniProt P54753); TESK1 (Homo sapiens, UniProt Q15569); MARK4 (Homo sapiens, UniProt Q96L34); CSNK1D (Homo sapiens, UniProt P48730); NEK3 (Homo sapiens, UniProt P51956); TRPM6 (Homo sapiens, UniProt Q9BX84); PIK3CA(E545K) (Homo sapiens, UniProt P42336, E545K); MKNK2 (Homo sapiens, UniProt Q9HBH9); SRPK2 (Homo sapiens, UniProt P78362); EPHA5 (Homo sapiens, UniProt P54756); PIK3CA(C420R) (Homo sapiens, UniProt P42336, C420R); PRKCQ (Homo sapiens, UniProt Q04759).

Common to all, as to assay: biochemical
Holding throughout (design): KINOMEscan active-site competition binding, percent of control (100 = no competition)
What all share (details): competition binding, percent control

Another test addresses T1, ERK4 (Homo sapiens, UniProt P31152).
T1 construct: gene MAPK4

For another test, the target named is T2, MEK1 (Homo sapiens, UniProt Q02750).
T2 construct: gene MAP2K1

In test [1] the target is T3, RPS6KA4(Kin.Dom.1-N-terminal) (Homo sapiens, UniProt O75676).
T3 construct: Kin.Dom.1-N-terminal

The target in the next test is T4, MRCKA (Homo sapiens, UniProt Q5VT25).
T4 construct: gene CDC42BPA

Test [2] concerns the target T5, ABL1(H396P)-phosphorylated (Homo sapiens, UniProt P00519, H396P).
T5 construct: phosphorylated

Test [3] has as its target T6, RSK4(Kin.Dom.1-N-terminal) (Homo sapiens, UniProt Q9UK32).
T6 construct: gene RPS6KA6; Kin.Dom.1-N-terminal

In the next test the target is T7, PFPK5(P.falciparum) (Plasmodium falciparum, UniProt P61075).
T7 construct: gene CRK2

Another test concerns the target T8, PYK2 (Homo sapiens, UniProt Q14289).
T8 construct: gene PTK2B

The structures appear in SMILES notation.

Chain of SRPK2 (P78362 whole entry): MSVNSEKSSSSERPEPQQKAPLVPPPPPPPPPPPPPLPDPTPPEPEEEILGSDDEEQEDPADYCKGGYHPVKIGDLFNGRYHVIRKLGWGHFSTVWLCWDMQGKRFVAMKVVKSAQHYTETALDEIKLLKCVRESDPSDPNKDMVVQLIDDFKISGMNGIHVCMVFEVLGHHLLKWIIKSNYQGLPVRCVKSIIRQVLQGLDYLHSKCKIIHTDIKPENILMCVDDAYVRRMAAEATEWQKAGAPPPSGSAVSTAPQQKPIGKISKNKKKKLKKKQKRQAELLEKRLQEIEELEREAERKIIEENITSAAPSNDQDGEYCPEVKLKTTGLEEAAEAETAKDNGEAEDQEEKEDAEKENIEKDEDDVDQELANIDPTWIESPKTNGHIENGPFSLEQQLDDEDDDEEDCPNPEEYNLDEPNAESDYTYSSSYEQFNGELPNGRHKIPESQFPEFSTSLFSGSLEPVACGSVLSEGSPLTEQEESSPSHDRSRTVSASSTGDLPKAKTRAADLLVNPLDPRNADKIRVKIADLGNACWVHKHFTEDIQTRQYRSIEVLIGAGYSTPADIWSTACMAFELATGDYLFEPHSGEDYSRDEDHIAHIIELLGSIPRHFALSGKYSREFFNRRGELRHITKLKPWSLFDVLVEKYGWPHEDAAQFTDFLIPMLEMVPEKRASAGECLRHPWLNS
Chain of EPHB3 (P54753 whole entry): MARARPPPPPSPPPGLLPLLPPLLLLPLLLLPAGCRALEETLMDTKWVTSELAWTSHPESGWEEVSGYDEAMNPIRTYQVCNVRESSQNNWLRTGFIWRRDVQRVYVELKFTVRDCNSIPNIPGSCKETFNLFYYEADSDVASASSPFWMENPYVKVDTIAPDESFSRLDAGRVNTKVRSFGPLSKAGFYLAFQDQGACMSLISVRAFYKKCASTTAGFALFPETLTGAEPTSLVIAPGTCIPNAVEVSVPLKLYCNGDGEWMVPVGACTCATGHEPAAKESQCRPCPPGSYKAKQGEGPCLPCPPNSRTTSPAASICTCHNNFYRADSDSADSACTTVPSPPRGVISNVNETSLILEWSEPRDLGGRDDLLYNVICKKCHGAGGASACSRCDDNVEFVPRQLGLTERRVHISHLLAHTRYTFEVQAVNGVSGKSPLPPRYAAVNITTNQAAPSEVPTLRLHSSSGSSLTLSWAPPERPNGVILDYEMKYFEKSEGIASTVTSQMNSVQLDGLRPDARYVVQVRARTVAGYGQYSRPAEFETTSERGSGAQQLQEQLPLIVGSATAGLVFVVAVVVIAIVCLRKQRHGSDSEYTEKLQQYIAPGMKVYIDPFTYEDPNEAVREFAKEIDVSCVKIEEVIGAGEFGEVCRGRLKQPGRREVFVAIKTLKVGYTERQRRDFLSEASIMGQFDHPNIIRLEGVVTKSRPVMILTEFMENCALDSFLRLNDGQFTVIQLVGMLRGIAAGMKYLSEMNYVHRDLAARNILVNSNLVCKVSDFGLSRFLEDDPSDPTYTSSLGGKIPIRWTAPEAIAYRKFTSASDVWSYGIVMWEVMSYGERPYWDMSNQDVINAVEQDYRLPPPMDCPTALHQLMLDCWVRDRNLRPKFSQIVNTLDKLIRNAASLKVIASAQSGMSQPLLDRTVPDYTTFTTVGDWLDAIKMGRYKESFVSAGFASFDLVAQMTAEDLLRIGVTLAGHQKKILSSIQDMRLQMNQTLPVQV
Chain of TESK1 (Q15569 whole entry): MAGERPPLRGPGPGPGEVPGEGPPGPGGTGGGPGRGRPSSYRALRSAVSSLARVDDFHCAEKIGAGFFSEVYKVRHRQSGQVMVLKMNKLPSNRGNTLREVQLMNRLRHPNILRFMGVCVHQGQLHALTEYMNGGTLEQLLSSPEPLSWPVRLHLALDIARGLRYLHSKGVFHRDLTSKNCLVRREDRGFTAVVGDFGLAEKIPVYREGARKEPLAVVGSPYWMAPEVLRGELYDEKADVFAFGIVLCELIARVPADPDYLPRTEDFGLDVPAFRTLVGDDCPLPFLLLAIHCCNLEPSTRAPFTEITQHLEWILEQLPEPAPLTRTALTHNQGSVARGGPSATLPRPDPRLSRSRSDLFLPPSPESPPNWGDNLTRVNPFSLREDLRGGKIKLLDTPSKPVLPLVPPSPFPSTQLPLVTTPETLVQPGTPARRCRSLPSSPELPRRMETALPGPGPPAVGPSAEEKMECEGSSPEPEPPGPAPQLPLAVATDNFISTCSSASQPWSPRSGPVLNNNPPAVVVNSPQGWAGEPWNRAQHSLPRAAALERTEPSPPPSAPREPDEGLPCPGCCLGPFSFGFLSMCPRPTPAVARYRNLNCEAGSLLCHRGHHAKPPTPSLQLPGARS
Chain of TRPM6 (Q9BX84 whole entry): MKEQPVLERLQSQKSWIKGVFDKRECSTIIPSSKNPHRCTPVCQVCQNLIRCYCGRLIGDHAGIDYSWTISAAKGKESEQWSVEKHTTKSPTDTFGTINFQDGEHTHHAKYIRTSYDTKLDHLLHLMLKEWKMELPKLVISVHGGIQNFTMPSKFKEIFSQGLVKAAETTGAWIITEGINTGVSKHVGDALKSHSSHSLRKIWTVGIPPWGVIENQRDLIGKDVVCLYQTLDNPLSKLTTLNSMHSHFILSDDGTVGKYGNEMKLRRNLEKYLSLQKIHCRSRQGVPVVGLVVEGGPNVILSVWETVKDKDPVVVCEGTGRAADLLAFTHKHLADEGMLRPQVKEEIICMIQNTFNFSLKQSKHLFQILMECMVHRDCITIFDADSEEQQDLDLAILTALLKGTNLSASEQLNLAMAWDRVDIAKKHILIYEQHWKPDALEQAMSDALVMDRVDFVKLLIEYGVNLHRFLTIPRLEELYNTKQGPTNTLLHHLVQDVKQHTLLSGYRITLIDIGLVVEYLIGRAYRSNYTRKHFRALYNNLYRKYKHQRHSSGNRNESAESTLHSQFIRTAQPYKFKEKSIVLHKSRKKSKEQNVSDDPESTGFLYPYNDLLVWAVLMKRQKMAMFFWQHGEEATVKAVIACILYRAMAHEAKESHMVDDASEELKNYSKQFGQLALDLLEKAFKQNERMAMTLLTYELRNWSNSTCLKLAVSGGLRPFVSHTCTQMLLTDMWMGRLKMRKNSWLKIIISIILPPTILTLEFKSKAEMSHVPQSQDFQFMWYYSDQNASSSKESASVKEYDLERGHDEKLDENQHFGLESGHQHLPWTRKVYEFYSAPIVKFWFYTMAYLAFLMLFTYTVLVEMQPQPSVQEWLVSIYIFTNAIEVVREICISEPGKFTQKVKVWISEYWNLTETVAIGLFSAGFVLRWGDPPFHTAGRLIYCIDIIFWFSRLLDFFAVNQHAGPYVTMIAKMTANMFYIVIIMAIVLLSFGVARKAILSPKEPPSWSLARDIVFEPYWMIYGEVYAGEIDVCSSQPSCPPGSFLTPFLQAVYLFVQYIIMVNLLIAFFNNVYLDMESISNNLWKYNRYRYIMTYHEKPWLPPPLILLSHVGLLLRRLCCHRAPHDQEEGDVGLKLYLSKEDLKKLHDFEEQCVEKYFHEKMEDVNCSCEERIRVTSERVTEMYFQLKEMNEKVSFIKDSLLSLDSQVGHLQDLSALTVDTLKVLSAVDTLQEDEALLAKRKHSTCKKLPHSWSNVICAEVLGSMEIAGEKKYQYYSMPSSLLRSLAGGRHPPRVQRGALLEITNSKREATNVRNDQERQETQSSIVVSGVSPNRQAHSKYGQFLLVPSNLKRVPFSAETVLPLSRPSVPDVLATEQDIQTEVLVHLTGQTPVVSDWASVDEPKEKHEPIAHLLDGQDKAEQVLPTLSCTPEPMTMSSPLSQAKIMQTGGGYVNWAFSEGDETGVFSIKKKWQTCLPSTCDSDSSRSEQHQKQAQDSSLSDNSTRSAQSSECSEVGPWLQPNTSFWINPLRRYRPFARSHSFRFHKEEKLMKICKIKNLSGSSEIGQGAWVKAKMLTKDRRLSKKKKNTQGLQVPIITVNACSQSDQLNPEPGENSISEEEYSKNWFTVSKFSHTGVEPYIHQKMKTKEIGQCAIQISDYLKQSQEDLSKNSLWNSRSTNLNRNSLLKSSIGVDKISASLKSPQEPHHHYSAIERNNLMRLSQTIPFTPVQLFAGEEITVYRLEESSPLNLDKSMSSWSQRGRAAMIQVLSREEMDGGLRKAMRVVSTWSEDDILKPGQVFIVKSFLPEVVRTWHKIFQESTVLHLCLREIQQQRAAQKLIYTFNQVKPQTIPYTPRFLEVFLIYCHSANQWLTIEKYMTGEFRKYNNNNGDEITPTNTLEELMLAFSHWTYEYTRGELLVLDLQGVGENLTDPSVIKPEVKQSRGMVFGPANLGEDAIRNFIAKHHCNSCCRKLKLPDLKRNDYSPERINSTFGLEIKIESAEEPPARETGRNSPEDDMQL
Chain of MKNK2 (Q9HBH9 whole entry): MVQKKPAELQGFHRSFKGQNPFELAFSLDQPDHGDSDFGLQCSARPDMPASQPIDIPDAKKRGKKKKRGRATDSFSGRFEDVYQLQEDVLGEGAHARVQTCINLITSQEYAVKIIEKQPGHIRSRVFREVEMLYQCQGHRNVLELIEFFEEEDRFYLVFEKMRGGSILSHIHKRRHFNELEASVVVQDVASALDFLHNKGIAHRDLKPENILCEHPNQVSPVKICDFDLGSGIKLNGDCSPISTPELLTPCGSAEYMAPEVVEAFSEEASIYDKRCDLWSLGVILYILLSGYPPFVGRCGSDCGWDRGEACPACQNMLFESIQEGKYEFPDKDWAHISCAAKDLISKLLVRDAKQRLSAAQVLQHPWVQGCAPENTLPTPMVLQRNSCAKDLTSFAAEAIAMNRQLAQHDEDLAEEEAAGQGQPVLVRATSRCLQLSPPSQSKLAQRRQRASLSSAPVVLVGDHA
T7 sequence (P61075 whole entry): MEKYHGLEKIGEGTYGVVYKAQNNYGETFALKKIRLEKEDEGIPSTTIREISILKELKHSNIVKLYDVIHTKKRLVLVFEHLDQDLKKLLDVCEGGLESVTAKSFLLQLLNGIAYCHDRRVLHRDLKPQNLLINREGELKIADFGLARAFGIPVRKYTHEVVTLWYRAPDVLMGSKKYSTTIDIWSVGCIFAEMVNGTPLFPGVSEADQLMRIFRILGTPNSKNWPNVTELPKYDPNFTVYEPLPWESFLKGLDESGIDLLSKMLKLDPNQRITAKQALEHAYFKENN

Turning to `COc1ccc(-c2cnccc2-c2cnc(NC(=O)C(C)C)s2)c(C(F)(F)F)c1` [CRT0105446, N-{5-[3-(4-Methoxy-2-trifluoromethyl-phenyl)-pyridin-4-yl]-hiazol-2-yl}-isobutyramide], the remaining binding at 10 µM was found to be 100% at ERK4; 99% at RET(V804L); 100% on HCK; 83% at EPHB3; 96% on TESK1; 57% on MARK4. The remaining binding at 10 µM at CSNK1D stood at 27%; on MEK1 it was 87%; in [1], 100%; at MRCKA it was 77%; in test [2], 82%; on NEK3, 100%. For the same compound, the remaining binding at 10 µM was 94% on TRPM6; 97% on PIK3CA(E545K); 68% on MKNK2; 59% in test [3]; 93% at SRPK2; 100% at PFPK5(P.falciparum). Besides, the remaining binding at 10 µM at EPHA5 is 100%; on PYK2, 100%; on PIK3CA(C420R), 100%; on PRKCQ, 74%.
Regarding `Cc1ccc(-c2cnccc2-c2cnc(Nc3ccc(O)cc3)s2)c(Cl)c1` [CRT0105950, 4-{5-[3-(2-Chloro-4-methyl-phenyl)-pyridin-4-yl]-thiazol-2-ylamino}-phenol], the remaining binding at 10 µM at ERK4 was found to be 86%; at RET(V804L), 5.8%; on HCK, 94%; on EPHB3, 96%; on TESK1 it was 20%; on MARK4, 4%. Also, the remaining binding at 10 µM at CSNK1D was determined as 6.1%; on MEK1, 51%; in test [1], 14%; on MRCKA, 84%; in test [2], 72%; at NEK3 it was 88%. For the same compound, the remaining binding at 10 µM on TRPM6 came to 93%; on PIK3CA(E545K), 100%; at MKNK2, 1.8%; in test [3], 0.4%; on SRPK2 it was 83%; at PFPK5(P.falciparum), 84%. The remaining binding at 10 µM at EPHA5 came to 100%; on PYK2 it was 2.2%; at PIK3CA(C420R), 88%; at PRKCQ, 13%.
